Results: patent US20250129430A1, “HIGH ATP-AFFINITY PROTEIN AS THERAPEUTIC TARGET FOR INTRACTABLE CANCER MOLECULAR SUBTYPES AND INHIBITOR THEREOF” (VeraVerse Co., Ltd., priority 2021, published 2025)
Counter-ions that a name gives are not always drawn.

Tests used:
Experiment in all cases: Cell viability drug screen, 12-point dose-response AUC
Format in all cases: cell-based, human
[1] = test system: AGS; details: 72 hours; for area under the viability curve (AUC), normalized: AGS cells, 12-point dose-response
Method in brief: (§1)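 Gastric cancer lines seeded 5×10^3 cells/well, dosed after 24 h with half-log 12-point compound dilutions (DMSO 0.5% control), then 72 h at 37 °C. Viability by luminescence, normalized to DMSO; AUC by trapezoidal method, averaged over repeats.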

[2] = test system: Hs746T; details: 72 hours; for area under the viability curve (AUC), normalized: Hs746T cells, 12-point dose-response
Method in brief: (§2)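 Each cell line receives a twelve-point half-log titration of drug beginning 24 h after plating 5×10^3 cells per well. Following 72 h culture at 37 °C, luminescent signal is recorded and expressed versus vehicle. AUC is derived by the trapezoidal method.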

[3] = test system: KATO3; details: KATO3 cells, 72 hours; for area under the viability curve (AUC), normalized: 12-point dose-response
Method in brief: as §2

[4] = test system: MKN1; details: MKN1 cells, 72 hours; for area under the viability curve (AUC), normalized: 12-point dose-response
Method in brief: as §2

[5] = test system: MKN28; details: MKN28 cells, 72 hours; for area under the viability curve (AUC), normalized: 12-point dose-response
Method in brief: as §2

[6] = test system: MKN45; details: 72 hours; for area under the viability curve (AUC), normalized: MKN45 cells, 12-point dose-response
Method in brief: as §1

[7] = test system: MKN74; details: MKN74 cells, 72 hours; for area under the viability curve (AUC), normalized: 12-point dose-response
Method in brief: as §1

[8] = test system: NCC19; details: NCC19 cells, 72 hours; for area under the viability curve (AUC), normalized: 12-point dose-response
Method in brief: as §2

[9] = test system: NCC20; details: NCC20 cells, 72 hours; for area under the viability curve (AUC), normalized: 12-point dose-response
Method in brief: as §2

[10] = test system: NCC24; details: NCC24 cells, 72 hours; for area under the viability curve (AUC), normalized: 12-point dose-response
Method in brief: as §2

[11] = test system: NCC59; details: NCC59 cells, 72 hours; for area under the viability curve (AUC), normalized: 12-point dose-response
Method in brief: as §2

[12] = test system: NCI_N87; details: NCI_N87 cells, 72 hours; for area under the viability curve (AUC), normalized: 12-point dose-response
Method in brief: as §2

[13] = test system: OCUM1; details: OCUM1 cells, 72 hours; for area under the viability curve (AUC), normalized: 12-point dose-response
Method in brief: as §2

[14] = test system: SK4; details: 72 hours; for area under the viability curve (AUC), normalized: SK4 cells, 12-point dose-response
Method in brief: as §2

[15] = test system: SNU16; details: SNU16 cells, 72 hours; for area under the viability curve (AUC), normalized: 12-point dose-response
Method in brief: as §2

[16] = test system: SNU1750; details: 72 hours; for area under the viability curve (AUC), normalized: SNU1750 cells, 12-point dose-response
Method in brief: as §2

[17] = test system: SNU1967; details: SNU1967 cells, 72 hours; for area under the viability curve (AUC), normalized: 12-point dose-response
Method in brief: as §2

[18] = test system: SNU1; details: SNU1 cells, 72 hours; for area under the viability curve (AUC), normalized: 12-point dose-response
Method in brief: as §2

[19] = test system: SNU216; details: 72 hours; for area under the viability curve (AUC), normalized: SNU216 cells, 12-point dose-response
Method in brief: as §1

[20] = test system: SNU484; details: 72 hours; for area under the viability curve (AUC), normalized: SNU484 cells, 12-point dose-response
Method in brief: as §2

[21] = test system: SNU601; details: SNU601 cells, 72 hours; for area under the viability curve (AUC), normalized: 12-point dose-response
Method in brief: as §2

[22] = test system: SNU620; details: SNU620 cells, 72 hours; for area under the viability curve (AUC), normalized: 12-point dose-response
Method in brief: as §2

[23] = test system: SNU638; details: SNU638 cells, 72 hours; for area under the viability curve (AUC), normalized: 12-point dose-response
Method in brief: as §2

[24] = test system: SNU668; details: 72 hours; for area under the viability curve (AUC), normalized: SNU668 cells, 12-point dose-response
Method in brief: as §2

[25] = test system: SNU719; details: SNU719 cells, 72 hours; for area under the viability curve (AUC), normalized: 12-point dose-response
Method in brief: as §1

[26] = test system: YCC11; details: 72 hours; for area under the viability curve (AUC), normalized: YCC11 cells, 12-point dose-response
Method in brief: as §2

[27] = test system: YCC2; details: YCC2 cells, 72 hours; for area under the viability curve (AUC), normalized: 12-point dose-response
Method in brief: as §2

[28] = test system: YCC3; details: YCC3 cells, 72 hours; for area under the viability curve (AUC), normalized: 12-point dose-response
Method in brief: as §2

[29] = test system: FU97; parameters: Average Area Under the Viability Curve (AUC), AUC norm value: scale not given here; details: FU97 cells, 72 hours; for area under the viability curve (AUC), normalized: 12-point dose-response
Method in brief: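 Trapezoidal AUC of a 12-point, DMSO-normalized dose-response curve. Luminescent viability was measured after 72 h of exposure at 37° C to half-log serial dilutions (0.5% DMSO control), dosed 24 h after plating FU97 cells at 5×10^3 per well.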

With `CCCOc1ccc2nc(NC(=O)OC)[nH]c2c1` [Oxybendazole] the “area under the viability curve (AUC), normalized” value (“area … normalized” for short) [1] was −1.064, the “area … normalized” value [2] was 1.204 and the “area … normalized” value [3] was 3.472. For the same molecule, the “area … normalized” value [4] was −0.5859, the “area … normalized” value [5] was −0.1307 and the “area … normalized” value [6] was 2.187. For the same molecule, the “area … normalized” value [7] was 0.4498, the “area … normalized” value [8] was 1.219 and the “area … normalized” value [9] was −0.7466. For the same molecule, the “area … normalized” value [10] was −1.131, the “area … normalized” value [11] was 2.518 and the “area … normalized” value [12] was −0.1928. For the same molecule, the “area … normalized” value [13] was 1.059, the “area … normalized” value [14] was −0.1414 and the “area … normalized” value [15] was 2.326. The “area … normalized” value [16] was 0.4952, the “area … normalized” value [17] was 0 and the “area … normalized” value [18] was −1.007. For the same molecule, the “area … normalized” value [19] was 1.744, the “area … normalized” value [20] was −0.00299 and the “area … normalized” value [21] was 1.095. For the same molecule, the “area … normalized” value [22] was −1.528, the “area … normalized” value [23] was −0.2808 and the “area … normalized” value [24] was −0.3638. The “area … normalized” value [25] was 3.17, the “area … normalized” value [26] was −0.2902 and the “area … normalized” value [27] was 0.7894. For the same molecule, the “area … normalized” value [28] was 2.897 and the “area … normalized” value [29] was −0.3548.

With `CN(C)Cc1c(C(=O)NCCOc2ccc(C(=O)NO)cc2)oc2ccccc12` [PCI-24781] the “Average Area Under the Viability Curve (AUC), AUC norm value” (“Average Area Under the Viability Curve” below) ([1]; AGS cells (non-SEM subtype)) was −1.161, the “Average Area Under the Viability Curve” value ([2]; Hs746T cells (SEM subtype)) was −0.03183 and the “Average Area Under the Viability Curve” value [3] was −0.2111. The “Average Area Under the Viability Curve” value [4] was 0.6581, the “Average Area Under the Viability Curve” value [5] was −0.378 and the “Average Area Under the Viability Curve” value ([6]; MKN45 cells (non-SEM subtype)) was 2.259. The “Average Area Under the Viability Curve” value [7] was 0.2128, the “Average Area Under the Viability Curve” value [8] was 0.3282 and the “Average Area Under the Viability Curve” value [9] was −1.065. The “Average Area Under the Viability Curve” value [10] was −0.2766, the “Average Area Under the Viability Curve” value [11] was 0.9766 and the “Average Area Under the Viability Curve” value [12] was −0.3803. The “Average Area Under the Viability Curve” value [13] was 0, the “Average Area Under the Viability Curve” value ([14]; SK4 cells (SEM subtype)) was 0.451 and the “Average Area Under the Viability Curve” value [15] was −1.233. For the same molecule, the “Average Area Under the Viability Curve” value ([16]; SNU1750 cells (SEM subtype)) was −1.499, the “Average Area Under the Viability Curve” value [17] was −1.126 and the “Average Area Under the Viability Curve” value [18] was 0.3429. For the same molecule, the “Average Area Under the Viability Curve” value ([19]; SNU216 cells (non-SEM subtype)) was 0.03042, the “Average Area Under the Viability Curve” value ([20]; SNU484 cells (SEM subtype)) was 0.1533 and the “Average Area Under the Viability Curve” value [21] was 0.6141. The “Average Area Under the Viability Curve” value [22] was −0.6966, the “Average Area Under the Viability Curve” value [23] was −0.06055 and the “Average Area Under the Viability Curve” value ([24]; SNU668 cells (SEM subtype)) was 0.53. The “Average Area Under the Viability Curve” value [25] was 1.428, the “Average Area Under the Viability Curve” value ([26]; YCC11 cells (SEM subtype)) was −0.09531 and the “Average Area Under the Viability Curve” value [27] was 0.00064. The “Average Area Under the Viability Curve” value [28] was 0.8426 and the “Average Area Under the Viability Curve” value [29] was −1.786.

`C#Cc1cccc(Nc2ncnc3cc(OC)c(OCCCCCCC(=O)NO)cc23)c1` [CUDC-101] was tested, and the “area … normalized” value [1] was −0.9569, the “area … normalized” value [2] was 0.4609 and the “area … normalized” value [3] was 0.683. The “area … normalized” value [4] was 0.6267, the “area … normalized” value [5] was −0.7663 and the “area … normalized” value [6] was 1.5. For the same molecule, the “area … normalized” value [7] was −0.5407, the “area … normalized” value [8] was 1.187 and the “area … normalized” value [9] was −0.7885. The “area … normalized” value [10] was 0.1814, the “area … normalized” value [11] was 1.8155 and the “area … normalized” value [12] was −0.4217. For the same molecule, the “area … normalized” value [13] was 0.3332, the “area … normalized” value [14] was −0.04342 and the “area … normalized” value [15] was 0.427. The “area … normalized” value [16] was −1.203, the “area … normalized” value [17] was −0.301 and the “area … normalized” value [18] was 0. The “area … normalized” value [19] was −0.5746, the “area … normalized” value [20] was 0.5831 and the “area … normalized” value [21] was −0.1084. For the same molecule, the “area … normalized” value [22] was −0.4289, the “area … normalized” value [23] was −0.8807 and the “area … normalized” value [24] was 0.9508. For the same molecule, the “area … normalized” value [25] was 0.9348, the “area … normalized” value [26] was 0.3451 and the “area … normalized” value [27] was −0.1991. The “area … normalized” value [28] was 0.7562 and the “area … normalized” value [29] was −0.4688.

With `O=C1c2c(O)ccc(O)c2C(=O)c2c(NCCNCCO)ccc(NCCNCCO)c21` [Mitoxantrone Hydrochloride] the “area … normalized” value [1] was −1.671, the “area … normalized” value [2] was 0.5925 and the “area … normalized” value [3] was 4.807. For the same molecule, the “area … normalized” value [4] was −1.197, the “area … normalized” value [5] was 1.616 and the “area … normalized” value [6] was 2.014. For the same molecule, the “area … normalized” value [7] was −0.2914, the “area … normalized” value [8] was 2.884 and the “area … normalized” value [9] was −0.7422. For the same molecule, the “area … normalized” value [10] was −1.038, the “area … normalized” value [11] was 1.001 and the “area … normalized” value [12] was 2.6755. The “area … normalized” value [13] was 0.8078, the “area … normalized” value [14] was −0.6127 and the “area … normalized” value [15] was 1.6. The “area … normalized” value [16] was −0.3587, the “area … normalized” value [17] was −1.342 and the “area … normalized” value [18] was 0. For the same molecule, the “area … normalized” value [19] was 1.1656, the “area … normalized” value [20] was −1.158 and the “area … normalized” value [21] was −0.5251. The “area … normalized” value [22] was −0.6012, the “area … normalized” value [23] was −1.06 and the “area … normalized” value [24] was −0.6581. For the same molecule, the “area … normalized” value [25] was 3.647, the “area … normalized” value [26] was −1.252 and the “area … normalized” value [27] was 0.5126. The “area … normalized” value [28] was 2.27 and the “area … normalized” value [29] was 0.4542.
